Test results from the NIST ThermoML archive (doi:10.1021/je2010209).

Assay: xn = mol fraction of the nth substance listed
Conditions: 101 kPa, Liquid; for speed of sound: Sing-around technique in a fixed-path interferometer; for mass density: Vibrating tube method

COCCOCCOCCO [2-[2-(2-methoxyethoxy)ethoxy]ethanol] + CCCCn1cc[n+](C)c1.F[B-](F)(F)F
Conditions	mass density [kg/m3]	speed of sound [m/s]
288.15 K, x2 = 0	1050.1	1470
288.15 K, x2 = 0.024	1056.87	1484
288.15 K, x2 = 0.107	1076.66	1510
288.15 K, x2 = 0.2241	1099.67	1541
288.15 K, x2 = 0.3275	1118.29	1555
288.15 K, x2 = 0.4285	1135.35	1564
288.15 K, x2 = 0.5067	1147.58	1570
288.15 K, x2 = 0.6282	1164.47	1575
288.15 K, x2 = 0.7072	1174.32	1581
288.15 K, x2 = 0.8256	1188.11	1584
288.15 K, x2 = 0.913	1197.84	1585
293.15 K, x2 = 0	1045.75	1452
293.15 K, x2 = 0.024	1052.52	1466
293.15 K, x2 = 0.107	1072.57	1492
293.15 K, x2 = 0.2241	1095.95	1519
293.15 K, x2 = 0.3275	1114.5	1539
293.15 K, x2 = 0.4285	1131.41	1550
293.15 K, x2 = 0.5067	1143.6	1555
293.15 K, x2 = 0.6282	1160.74	1561
293.15 K, x2 = 0.7072	1170.79	1568
293.15 K, x2 = 0.8256	1184.68	1572
293.15 K, x2 = 0.913	1194.26	1573
298.15 K, x2 = 0	1041.32	1436
298.15 K, x2 = 0.024	1048.15	1450
298.15 K, x2 = 0.107	1068.36	1475
298.15 K, x2 = 0.2241	1091.87	1503
298.15 K, x2 = 0.3275	1110.48	1524
298.15 K, x2 = 0.4285	1127.42	1533
298.15 K, x2 = 0.5067	1139.64	1541
298.15 K, x2 = 0.6282	1156.88	1548
298.15 K, x2 = 0.7072	1167	1555
298.15 K, x2 = 0.8256	1181.03	1560
298.15 K, x2 = 0.913	1190.69	1560
303.15 K, x2 = 0	1036.84	1421
303.15 K, x2 = 0.024	1043.76	1435
303.15 K, x2 = 0.107	1064.17	1458
303.15 K, x2 = 0.2241	1087.79	1488
303.15 K, x2 = 0.3275	1106.46	1509
303.15 K, x2 = 0.4285	1123.48	1519
303.15 K, x2 = 0.5067	1135.77	1528
303.15 K, x2 = 0.6282	1153.12	1534
303.15 K, x2 = 0.7072	1163.33	1543
303.15 K, x2 = 0.8256	1177.39	1548
303.15 K, x2 = 0.913	1187	1549
308.15 K, x2 = 0	1032.27	1408
308.15 K, x2 = 0.024	1039.37	1421
308.15 K, x2 = 0.107	1060.13	1444
308.15 K, x2 = 0.2241	1083.76	1475
308.15 K, x2 = 0.3275	1102.44	1494
308.15 K, x2 = 0.4285	1119.54	1507
308.15 K, x2 = 0.5067	1131.91	1516
308.15 K, x2 = 0.6282	1149.37	1523
308.15 K, x2 = 0.7072	1159.63	1530
308.15 K, x2 = 0.8256	1173.68	1536
308.15 K, x2 = 0.913	1183.36	1538
313.15 K, x2 = 0	1027.76	1393
313.15 K, x2 = 0.024	1034.9	1406
313.15 K, x2 = 0.107	1055.73	1431
313.15 K, x2 = 0.2241	1079.59	1461
313.15 K, x2 = 0.3275	1098.41	1483
313.15 K, x2 = 0.4285	1115.62	1493
313.15 K, x2 = 0.5067	1128.04	1503
313.15 K, x2 = 0.6282	1145.63	1511
313.15 K, x2 = 0.7072	1155.93	1518
313.15 K, x2 = 0.8256	1170.13	1524
313.15 K, x2 = 0.913	1179.9	1527
318.15 K, x2 = 0	1023.3	1376
318.15 K, x2 = 0.024	1030.54	1390
318.15 K, x2 = 0.107	1051.51	1415
318.15 K, x2 = 0.2241	1075.43	1447
318.15 K, x2 = 0.3275	1094.37	1468
318.15 K, x2 = 0.4285	1111.73	1480
318.15 K, x2 = 0.5067	1124.25	1490
318.15 K, x2 = 0.6282	1141.8	1500
318.15 K, x2 = 0.7072	1152	1506
318.15 K, x2 = 0.8256	1166.14	1513
318.15 K, x2 = 0.913	1176	1516
